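Values below derive from 48-hour exposures of cells grown in 96-well plates, with endpoints linearly interpolated between the two concentrations bracketing the appropriate inhibition level. GI50: concentration for 50% inhibition of growth.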 The source made the active and inactive calls. Cut-off read from the data, not from the text of the source: active = GI50 up to about 1.1 µM and inactive = higher.
What was measured:
Assay in all cases: NCI-60 cell line screen, 48 h
LOX IMVI = test system: LOX IMVI
MDA-MB-231 = test system: MDA-MB-231
NCI-H522 = test system: NCI-H522
NCI-H226 = test system: NCI-H226
HCT-116 = test system: HCT-116
KM12 = test system: KM12
OVCAR-3 = test system: OVCAR-3
DU-145 = test system: DU-145
RXF 393 = test system: RXF 393
HOP-92 = test system: HOP-92
UO-31 = test system: UO-31
CAKI-1 = test system: CAKI-1
A498 = test system: A498
SK-MEL-28 = test system: SK-MEL-28
RPMI-8226 = test system: RPMI-8226
SW-620 = test system: SW-620
UACC-62 = test system: UACC-62
A549 = test system: A549
HT-29 = test system: HT-29
SF-539 = test system: SF-539
EKVX = test system: EKVX
OVCAR-8 = test system: OVCAR-8
SK-MEL-5 = test system: SK-MEL-5
SK-OV-3 = test system: SK-OV-3
Malme-3M = test system: Malme-3M
HCT-15 = test system: HCT-15
SF-295 = test system: SF-295
IGROV-1 = test system: IGROV-1
HOP-62 = test system: HOP-62
OVCAR-5 = test system: OVCAR-5
MDA-N = test system: MDA-N
786-0 = test system: 786-0
BT-549 = test system: BT-549
SN12C = test system: SN12C
MDA-MB-435 = test system: MDA-MB-435
OVCAR-4 = test system: OVCAR-4
K562 = test system: K562
TK-10 = test system: TK-10
MCF7 = test system: MCF7
M14 = test system: M14
SNB-19 = test system: SNB-19
HL-60 = test system: HL-60
COLO 205 = test system: COLO 205
NCI-H460 = test system: NCI-H460
UACC-257 = test system: UACC-257
NCI-H23 = test system: NCI-H23
NCI/ADR-RES = test system: NCI/ADR-RES
T47D = test system: T47D
MOLT-4 = test system: MOLT-4
SR = test system: SR
CCRF-CEM = test system: CCRF-CEM
U-251 = test system: U-251
ACHN = test system: ACHN
Hs-578T = test system: Hs-578T
SF-268 = test system: SF-268
HCC 2998 = test system: HCC 2998
SNB-75 = test system: SNB-75
PC-3 = test system: PC-3
SK-MEL-2 = test system: SK-MEL-2

CN(C)CCNc1nc2c(c(=O)n(C)c(=O)n2C)n1C
GI50 (LOX IMVI): > 100 µM (inactive)
GI50 (MDA-MB-231): > 100 µM (inactive)
GI50 (NCI-H522): > 100 µM (inactive)
GI50 (NCI-H226): > 100 µM (inactive)
GI50 (HCT-116): > 100 µM (inactive)
GI50 (KM12): > 100 µM (inactive)
GI50 (OVCAR-3): > 100 µM (inactive)
GI50 (DU-145): > 100 µM (inactive)
GI50 (RXF 393): > 100 µM (inactive)
GI50 (HOP-92): > 100 µM (inactive)
GI50 (UO-31): > 100 µM (inactive)
GI50 (CAKI-1): > 100 µM (inactive)
GI50 (A498): > 100 µM (inactive)
GI50 (SK-MEL-28): > 100 µM (inactive)
GI50 (RPMI-8226): > 100 µM (inactive)
GI50 (SW-620): > 100 µM (inactive)
GI50 (UACC-62): > 100 µM (inactive)
GI50 (A549): > 100 µM (inactive)
GI50 (HT-29): > 100 µM (inactive)
GI50 (SF-539): > 100 µM (inactive)
GI50 (EKVX): > 100 µM (inactive)
GI50 (OVCAR-8): > 100 µM (inactive)
GI50 (SK-MEL-5): > 100 µM (inactive)
GI50 (SK-OV-3): > 100 µM (inactive)
GI50 (Malme-3M): > 100 µM (inactive)
GI50 (HCT-15): > 100 µM
GI50 (SF-295): > 100 µM (inactive)
GI50 (IGROV-1): > 100 µM (inactive)
GI50 (HOP-62): > 100 µM (inactive)
GI50 (OVCAR-5): > 100 µM (inactive)
GI50 (MDA-N): > 100 µM (inactive)
GI50 (786-0): > 100 µM (inactive)
GI50 (BT-549): > 100 µM (inactive)
GI50 (SN12C): > 100 µM (inactive)
GI50 (MDA-MB-435): > 100 µM (inactive)
GI50 (OVCAR-4): > 100 µM (inactive)
GI50 (K562): > 100 µM (inactive)
GI50 (TK-10): > 100 µM (inactive)
GI50 (MCF7): > 100 µM (inactive)
GI50 (M14): > 100 µM (inactive)
GI50 (SNB-19): > 100 µM (inactive)
GI50 (HL-60): > 100 µM (inactive)
GI50 (COLO 205): > 100 µM (inactive)
GI50 (NCI-H460): > 100 µM (inactive)
GI50 (UACC-257): > 100 µM (inactive)
GI50 (NCI-H23): > 100 µM (inactive)
GI50 (NCI/ADR-RES): > 100 µM (inactive)
GI50 (T47D): > 100 µM (inactive)
GI50 (MOLT-4): > 100 µM (inactive)
GI50 (SR): > 100 µM (inactive)
GI50 (CCRF-CEM): > 100 µM (inactive)
GI50 (U-251): > 100 µM (inactive)
GI50 (ACHN): > 100 µM (inactive)
GI50 (Hs-578T): > 100 µM (inactive)
GI50 (SF-268): > 100 µM (inactive)

Nc1ccc2cc3ccc(N)cc3nc2c1
GI50 (HCC 2998): 1.25 µM (inactive)
GI50 (MDA-MB-231): 1.94 µM (inactive)
GI50 (HCT-116): 0.482 µM (active)
GI50 (OVCAR-3): 2.09 µM (inactive)
GI50 (DU-145): 3.33 µM (inactive)
GI50 (UO-31): 0.993 µM (active)
GI50 (CAKI-1): 1.56 µM (inactive)
GI50 (SK-MEL-28): 2 µM (inactive)
GI50 (SW-620): 0.395 µM (active)
GI50 (UACC-62): 1.41 µM (inactive)
GI50 (HT-29): 0.499 µM (active)
GI50 (SF-539): 1.02 µM (active)
GI50 (EKVX): 1.56 µM (inactive)
GI50 (OVCAR-8): 0.678 µM (active)
GI50 (SK-MEL-5): 1.4 µM (inactive)
GI50 (SF-295): 2.42 µM (inactive)
GI50 (HOP-62): 1.62 µM (inactive)
GI50 (OVCAR-5): 1.63 µM (inactive)
GI50 (MDA-N): 1.41 µM (inactive)
GI50 (BT-549): 3.72 µM (inactive)
GI50 (SN12C): 0.979 µM (active)
GI50 (SNB-75): 1.34 µM (inactive)
GI50 (TK-10): 2.69 µM (inactive)
GI50 (MCF7): 0.757 µM (active)
GI50 (HL-60): 1.56 µM (inactive)
GI50 (COLO 205): 0.771 µM (active)
GI50 (NCI-H460): 0.46 µM (active)
GI50 (UACC-257): 2 µM (inactive)
GI50 (NCI/ADR-RES): 1.03 µM (active)
GI50 (T47D): 2.63 µM (inactive)
GI50 (MOLT-4): 0.524 µM (active)
GI50 (SR): 0.667 µM (active)
GI50 (CCRF-CEM): 1 µM (active)
GI50 (ACHN): 0.826 µM (active)
GI50 (Hs-578T): 2.43 µM (inactive)
GI50 (SF-268): 1.37 µM (inactive)

NC(=O)c1cccc(OCC(O)CO)c1 (centres undefined)
GI50 (HCC 2998): > 100 µM (inactive)
GI50 (MDA-MB-231): > 100 µM (inactive)
GI50 (NCI-H522): > 100 µM (inactive)
GI50 (NCI-H226): > 100 µM (inactive)
GI50 (HCT-116): > 100 µM (inactive)
GI50 (KM12): > 100 µM (inactive)
GI50 (OVCAR-3): > 100 µM (inactive)
GI50 (DU-145): > 100 µM (inactive)
GI50 (PC-3): > 100 µM (inactive)
GI50 (UO-31): > 100 µM (inactive)
GI50 (CAKI-1): > 100 µM (inactive)
GI50 (A498): > 100 µM (inactive)
GI50 (SK-MEL-28): > 100 µM (inactive)
GI50 (SW-620): > 100 µM (inactive)
GI50 (UACC-62): > 100 µM (inactive)
GI50 (A549): > 100 µM (inactive)
GI50 (HT-29): > 100 µM (inactive)
GI50 (SF-539): > 100 µM (inactive)
GI50 (EKVX): > 100 µM (inactive)
GI50 (OVCAR-8): > 100 µM (inactive)
GI50 (SK-MEL-5): > 100 µM (inactive)
GI50 (SK-OV-3): > 100 µM (inactive)
GI50 (HCT-15): > 100 µM
GI50 (SF-295): > 100 µM (inactive)
GI50 (IGROV-1): > 100 µM (inactive)
GI50 (HOP-62): > 100 µM (inactive)
GI50 (OVCAR-5): > 100 µM (inactive)
GI50 (MDA-N): > 100 µM (inactive)
GI50 (786-0): > 100 µM (inactive)
GI50 (BT-549): > 100 µM (inactive)
GI50 (SN12C): > 100 µM (inactive)
GI50 (SNB-75): > 100 µM (inactive)
GI50 (OVCAR-4): > 100 µM (inactive)
GI50 (K562): > 100 µM (inactive)
GI50 (TK-10): > 100 µM (inactive)
GI50 (MCF7): > 100 µM (inactive)
GI50 (M14): > 100 µM (inactive)
GI50 (SNB-19): > 100 µM (inactive)
GI50 (HL-60): > 100 µM (inactive)
GI50 (COLO 205): > 100 µM (inactive)
GI50 (NCI-H460): > 100 µM (inactive)
GI50 (UACC-257): > 100 µM (inactive)
GI50 (SK-MEL-2): > 100 µM (inactive)
GI50 (NCI-H23): > 100 µM (inactive)
GI50 (NCI/ADR-RES): > 100 µM (inactive)
GI50 (T47D): > 100 µM (inactive)
GI50 (MOLT-4): > 100 µM (inactive)
GI50 (SR): > 100 µM (inactive)
GI50 (CCRF-CEM): > 100 µM (inactive)
GI50 (U-251): > 100 µM (inactive)
GI50 (ACHN): > 100 µM (inactive)
GI50 (Hs-578T): > 100 µM (inactive)
GI50 (SF-268): > 100 µM (inactive)
